In ChEMBL document CHEMBL1133989, “Which aminoglycoside ring is most important for binding? A hydropathic analysis of gentamicin, paromomycin, and analogues” (Bioorg Med Chem Lett, 2001) one finds Kd data, which are given here for 13 compounds.

pKd: −log10 of the molar value. Bounds are passed on as bounds.

The test system of the experiment is Ribosomal RNA A-site. Put plainly: Binding affinity of aminoglycoside to 16S ribosomal RNA A-site in Escherichia coli. In kind it is nucleic-acid assay.
With `NCC1OC(OC2C(N)CC(N)C(O)C2OC2OC(CO)C(OC3OC(CN)C(O)C(O)C3O)C2O)C(N)C(O)C1O` (stereo not drawn), the negative logarithm of the Kd (pKd) was 6.15.

In turn, `NCCC1C(CO)OC(OC2C(O)C(N)CC(N)C2OC2OC(CN)C(O)C(O)C2N)C1O` (stereo not drawn) had a pKd of 5.77.

On to `NCCCNCC[C@H]1[C@@H](O)[C@H](O[C@H]2[C@@H](O)[C@H](N)C[C@H](N)[C@H]2O[C@H]2O[C@H](CN)[C@H](O)[C@H](O)[C@H]2N)O[C@@H]1CO`, for which the pKd was 6.59.

Compound `NC[C@H]1O[C@H](O[C@H]2[C@@H](O[C@@H]3O[C@H](CO)[C@@H](O[C@@H]4O[C@H](CO)[C@H](O)[C@H](O)[C@H]4O)[C@H]3O)[C@@H](O)[C@H](N)C[C@@H]2N)[C@H](N)[C@H](O)[C@@H]1O` gave a pKd of 4.55.

In turn, `NC[C@H]1O[C@H](O[C@H]2[C@H](O)[C@@H](O[C@H]3O[C@H](CO)[C@@H](O)[C@H](N)[C@H]3O)[C@H](N)C[C@@H]2N)[C@H](N)[C@@H](O)[C@@H]1O` [BEKANAMYCIN] had a pKd of 5.85.

Regarding `NCCC(O)C(=O)N[C@@H]1C[C@H](N)[C@@H](O[C@H]2O[C@H](CN)[C@@H](O)[C@H](O)[C@H]2N)[C@@H](O[C@@H]2O[C@H](CO)[C@@H](O)[C@H]2O)[C@H]1O` (stereo partly drawn) [BUTIROSIN B], the pKd is 4.57.

`NC[C@@H]1O[C@H](O[C@H]2[C@@H](O)[C@H](O[C@@H]3[C@@H](O)[C@H](N)C[C@H](N)[C@H]3O[C@H]3O[C@H](CN)[C@@H](O)[C@H](O)[C@H]3N)O[C@@H]2CO)[C@H](N)[C@@H](O)[C@@H]1O` [FRAMYCETIN] showed a pKd of 7.72.

Take `NC[C@@H]1O[C@@H](O[C@H]2[C@H](O)[C@@H](O[C@H]3O[C@H](CO)[C@@H](O)[C@H](N)[C@H]3O)[C@H](N)C[C@@H]2N)[C@@H](O)[C@H](O)[C@H]1O` [KANAMYCIN A]: the pKd was 4.74.

`NC[C@H]1O[C@H](O[C@H]2[C@H](O)[C@@H](O)[C@H](N)C[C@@H]2N)[C@H](N)[C@@H](O)[C@@H]1O` [NEAMINE] gave a pKd of 5.11.

As to `N[C@H]1[C@@H](O[C@H]2[C@H](O)[C@@H](O)[C@H](N)C[C@@H]2N)O[C@H](CO)[C@@H](O)[C@@H]1O` [PAROMAMINE], the pKd was above 4.00.

Regarding `NC[C@@H]1O[C@H](O[C@H]2[C@@H](O)[C@H](O[C@@H]3[C@@H](O)[C@H](N)C[C@H](N)[C@H]3O[C@H]3O[C@H](CO)[C@@H](O)[C@H](O)[C@H]3N)O[C@@H]2CO)[C@H](N)[C@@H](O)[C@@H]1O` [PAROMOMYCIN], the pKd was 6.70.

Compound `NC[C@H]1O[C@H](O[C@H]2[C@H](O[C@@H]3O[C@H](CO)[C@@H](O)[C@H]3O)[C@@H](O)[C@H](N)C[C@@H]2N)[C@H](N)[C@@H](O)[C@@H]1O` [RIBOSTAMYCIN] had a negative logarithm of the Kd (pKd) of 4.60.

In the case of `NC[C@H]1O[C@H](O[C@H]2[C@H](O)[C@@H](O[C@H]3O[C@H](CO)[C@@H](O)[C@H](N)[C@H]3O)[C@H](N)C[C@@H]2N)[C@H](N)C[C@@H]1O` [TOBRAMYCIN], the pKd is 5.82.
